{
  "source": "ChEMBL document CHEMBL1150094",
  "about": "“Cacospongionolide B, a new sesterterpene from the sponge Fasciospongia cavernosa” (J Nat Prod, 1995)",
  "key": {"Artemia salina": {"tested_on": "Artemia salina", "test": "Toxicity against Artemia salina", "format": "organism-based", "conditions": "in vivo"}, "Bacillus subtilis": {"tested_on": "Bacillus subtilis", "test": "Antimicrobial activity against Bacillus subtilis DSM 347", "format": "functional"}, "Micrococcus luteus": {"tested_on": "Micrococcus luteus", "test": "Antimicrobial activity against Micrococcus luteus DSM 348", "format": "functional"}},
  "data": [
    {"smiles": "C=C1CCC[C@H]2[C@](C)(CCC3=CCC(C4=CC(=O)OC4O)OC3)[C@H](C)CC[C@]12C", "note": "(stereo partly drawn) [CACOSPONGIONOLIDE B]", "values": [
      {"measurement": "LC50", "setting": "Artemia salina", "result": 0.25, "unit": "ppm"},
      {"measurement": "MIC", "setting": "Bacillus subtilis", "result": 0.78, "unit": "µg/mL"},
      {"measurement": "MIC", "setting": "Micrococcus luteus", "result": 0.78, "unit": "µg/mL"}
    ]}
  ]
}
